# Assay results: patent US20250099420A1, “SMALL MOLECULE MODULATORS OF GPR139 COMPLEX” (University of Florida Research Foundation, Incorporated, priority 2022, published 2025)
# Read-outs that look alike come from different tables or passages of the source.
# Assays:
# GPR139 = molecular target: T1, GPR139 (Homo sapiens, UniProt Q6DWJ6); assay: GPR139 Agonist titration / agonist counterscreen assay (calcium detection, HEK-GPR139 cells); assay type: cell-based; parameters: expressed in transfected cells; host or cells: HEK Aequorin cells, Maxcyte transient transfection; conditions: GPR139 Agonist Activity; for Averaged Max % Response (±St. Dev.): activity relative to known control; for EC50: read-out: EC50
# T1 sequence (Q6DWJ6 1-353): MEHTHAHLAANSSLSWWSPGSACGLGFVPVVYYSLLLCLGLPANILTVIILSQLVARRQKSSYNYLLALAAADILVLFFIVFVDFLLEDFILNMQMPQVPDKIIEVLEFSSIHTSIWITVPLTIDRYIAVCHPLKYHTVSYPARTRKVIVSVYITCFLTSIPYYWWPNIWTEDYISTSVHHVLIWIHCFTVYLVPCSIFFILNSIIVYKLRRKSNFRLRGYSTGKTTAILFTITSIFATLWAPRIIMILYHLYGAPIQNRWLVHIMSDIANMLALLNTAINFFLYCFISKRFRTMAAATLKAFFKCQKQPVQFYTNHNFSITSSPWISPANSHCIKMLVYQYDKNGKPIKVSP
# Protocol: GPR activity was assessed using a calcium detection assay. […] Negative control samples were treated with DMSO. […] Intracellular calcium was measured using Calcium 5.
# parental HEK cells = assay: HEK parental Agonist Counterscreen Assay (non-transfected cells); assay type: cell-based; conditions: for Averaged Max % Response (±St. Dev.): activity relative to known control
# Excerpt: The high control for the agonist counterscreen was Forskolin not acetylcholine.
# [1] = values printed in E-notation without unit
# [2] = Homo sapiens, HEK293, HEK Agonist Activity section of Table 4 (parental HEK counterscreen)
# [3] = HEK Agonist Activity section of Table 4 (parental HEK counterscreen)
SMILES,Averaged Max % Response (±St. Dev.) (GPR139),Lipophilic Efficiency (logD) (GPR139; based on logD),Lipophilic Efficiency (logP) (GPR139; based on logP),Hill Slope (GPR139; fitted dose-response curve),Efficiency Ligand (GPR139; ligand efficiency),EC50 (GPR139; [1]),Lipophilic Efficiency (logD) (parental HEK cells; HEK Agonist Activity section),Lipophilic Efficiency (logP) (parental HEK cells; HEK Agonist Activity section),Averaged Max % Response (±St. Dev.) (parental HEK cells; HEK Agonist Activity section),EC50 (parental HEK cells; [2]),Efficiency Ligand (GPR139),Hill Slope (GPR139),Lipophilic Efficiency (logD) (GPR139),Lipophilic Efficiency (logP) (GPR139),EC50 (GPR139; HEK-GPR139 cells),EC50 (parental HEK cells; [3]),Lipophilic Efficiency (logD) (parental HEK cells; HEK Agonist Activity),Lipophilic Efficiency (logP) (parental HEK cells; HEK Agonist Activity),Averaged Max % Response (±St. Dev.) (parental HEK cells; HEK Agonist Activity),"EC50 (parental HEK cells; Homo sapiens, HEK293, HEK Agonist Activity, parental non-transfected HEK cells)"
O=C(NCCn1ccc2ccccc21)c1cccc(Br)c1 [SR-01000124135],71.94 ± 4.54%,2.76,2.76,0.57,0.45,197 nM,0.91,0.91,7.54 ± 4.78%,> 14100 nM,,,,,,,,,,
CC(Oc1ccccc1)C(=O)NCCn1ccc2ccccc21 (centres unmarked) [SR-01000124163],90.02 ± 28.06%,,,,,,1.45,1.45,−3.45 ± 3.02%,> 14100 nM,0.36,1.37,2.59,2.59,1000 nM,,,,,
COc1ccc2cc(CCNC(=O)/C=C\c3ccc4c(c3)OCO4)c(=O)[nH]c2c1 [SR-01000124392],80.01 ± 6.26%,,,,,,2.31,2.31,5.97 ± 7.64%,,0.28,0.49,3.17,3.17,2000 nM,> 14100 nM,,,,
COc1cc(C(=O)NCCn2ccc3ccccc32)cc(OC)c1OC [SR-01000124399],147.35 ± 21.79%,4.50,4.50,0.70,0.39,62.9 nM,2.15,2.15,−5.54 ± 8.42%,> 14100 nM,,,,,,,,,,
O=C(NCCc1ccc(Cl)cc1)c1nnc(Cc2ccc(F)cc2)o1 [SR-01000125346],91.83 ± 43.39%,,,,,,1.73,1.73,18.06 ± 8.45%,> 14100 nM,0.34,1.86,2.95,2.95,840 nM,,,,,
O=C(CN1CCN(Cc2ccccc2Cl)C1=O)NCc1ccccc1Cl [SR-01000125458],119.40 ± 41.91%,4.54,4.54,0.73,0.40,35.8 nM,,,,,,,,,,,1.94,1.94,−1.02 ± 2.16%,> 14100 nM
O=C(CN1CCN(Cc2ccccc2Cl)C1=O)NC1CCCCCC1 [SR-01000125460],95.59 ± 27.48%,4.03,4.03,1.03,0.38,141 nM,2.02,2.02,−2.02 ± 12.81%,,,,,,,> 14100 nM,,,,
O=C(CN1CCN(Cc2ccccc2Cl)C1=O)NC1CCCCCCC1 [SR-01000125462],92.90 ± 12.57%,3.53,3.53,1.38,0.37,159 nM,1.58,1.58,6.02 ± 12.03%,,,,,,,> 14100 nM,,,,
Cc1ccc(CCNC(=O)CN2CCN(Cc3ccccc3Cl)C2=O)cc1 [SR-01000125464],83.25 ± 20.00%,3.74,3.74,0.73,0.35,143 nM,1.74,1.74,5.57 ± 17.96%,> 14100 nM,,,,,,,,,,
O=C(CN1CCN(Cc2ccccc2F)C1=O)NCCc1ccc(Cl)cc1 [SR-01000125584],103.06 ± 30.95%,4.59,4.59,0.81,0.38,47.1 nM,2.11,2.11,0.37 ± 17.31%,> 14100 nM,,,,,,,,,,
O=C(CN1CCN(Cc2ccc(F)cc2Cl)C1=O)NCc1ccccc1Cl [SR-01000125622],99.14 ± 16.79%,3.63,3.63,0.99,0.35,208 nM,1.80,1.80,−10.20 ± 10.64%,> 14100 nM,,,,,,,,,,
Cc1ccc(CN2CCN(CC(=O)NCCc3ccc(Cl)cc3)C2=O)c(Cl)c1 [SR-01000125626],79.66 ± 15.90%,,,,,,1.51,1.51,−27.02 ± 6.51%,> 14100 nM,0.30,0.73,2.72,2.72,,,,,,
CC1CCCC(NC(=O)CN2CCN(Cc3ccc(F)cc3Cl)C2=O)C1C (centres unmarked) [SR-01000125648],98.80 ± 20.98%,,,,,,1.67,1.67,8.17 ± 5.14%,> 14100 nM,0.33,0.84,3.13,3.13,490 nM,,,,,
O=C(C1CC1)N1CCc2cc(S(=O)(=O)NCC3COc4ccccc4O3)ccc21 (centres unmarked) [SR-01000126429],78.64 ± 16.53%,,,,,,2.75,2.75,25.18 ± 6.22%,> 14100 nM,0.29,1.58,3.90,3.90,1000 nM,,,,,
CN(C)C(CNC(=O)Nc1ccc(Cl)c(Cl)c1)c1cccnc1 (centres unmarked) [SR-01000127953],96.92 ± 13.57%,4.13,3.73,0.56,0.40,236 nM,2.35,1.96,10.89 ± 5.56%,> 14100 nM,,,,,,,,,,
Cc1ccccc1-c1nc(C[S+]([O-])CC(=O)NC(C)CCc2ccccc2)c(C)o1 (centres unmarked) [SR-01000129545],92.13 ± 1.72%,,,,,,1.11,1.09,32.45 ± 12.40%,,0.30,0.47,2.69,2.68,365 nM,> 14100 nM,,,,
CC(NC(=O)c1ccc2c(c1)N(Cc1ccccc1)C(=O)C[S+]2[O-])c1ccccc1 (centres unmarked) [SR-01000129845],98.04 ± 26.06%,3.96,3.96,1.01,0.32,138 nM,1.95,1.95,8.19 ± 5.50%,,,,,,,> 14100 nM,,,,
CC(CCc1ccccc1)NC(=O)c1ccc2c(c1)C(Cc1ccccc1)C(=O)C[S+]2[O-] (centres unmarked) [SR-01000129880],114.68 ± 22.09%,3.62,3.61,0.44,0.32,56.1 nM,1.22,1.21,0.02 ± 5.29%,> 14100 nM,,,,,,,,,,
CCCCN(C)C(=O)CCC(=O)NNC1Cc2ccccc2C2=CC(C)=CC21 (centres unmarked) [SR-01000131962],113.53 ± 12.66%,4.28,4.28,1.14,0.34,,2.37,2.37,−5.39 ± 5.10%,> 14100 nM,,,,,,,,,,
